Results reported in patent publication US4619917A, “Substituted 2-furanyl- or 5-oxo-2-furanyl methoxy phosphoryl alkyl cyclimmonium salts” (Sandoz Pharm. Corp., priority 1985, dated 1986).
Structures can show the parent of a compound that is named as a salt.

Legend:
[1] = molecular target: T1, Human Platelet PAF Receptor (Homo sapiens, UniProt P25105); experiment: Human Platelet PAF Receptor Assay test (Test A): inhibition of specific binding of [3H]-PAF to platelets; conditions: [3H]-PAF specific binding to human platelets, room temperature, one hour
T1 construct: from tissue; host or cells: washed human platelets from blood of healthy donors
Procedure: Human blood is obtained by venipuncture of healthy, human donors into an anti-coagulant mixture containing 3.15% of trisodium citrate and 20 μg/ml of Prostaglandin I2 (PGI2) in a ratio of blood to anti-coagulant of 9:1. Platelet rich plasma (PRP) is prepared by centrifugation (250×g) of the blood for 20 minutes at room temperature. The PRP is then centrifuged (900×g) for 10 minutes at room temperature and the platelet pellet is washed two times with Tris-Tyrode's (TT) solution having a pH of 7.4 and containing 0.25% bovine serum albumin (BSA), and to which has been added PGI2 at a final concentration of […]. The platelets are resuspended at […] in TT/BSA containing 1.4 mM CaCl2.2H2 O and 0.7 mM MgCl2.6H2 O. All of the tests are conducted in duplicate and each of the test compounds is evaluated at concentrations of 100, 50, 1 and 0.1 μM. For each determination, the following solutions are mixed:
500 μl of the above-described platelets;
10 μl of [^3 H]-PAF (40,000 counts per minute (cpm) to a final concentration of […]); and
10 μl of the test compound at 50× the desired final concentration,
10 μl of vehicle (total bound), or
10 μl of 1.85×10^-5 M cold PAF (non-specifically bound).
Each mixture is allowed to incubate at room temperature for one hour, after which time the reaction is terminated by the addition of 500 μl of ice cold TT/BSA and centrifugation (900×g) at 4° C. for 10 minutes. […] An additional 2 ml. of Scintiverse II is then added to the vials and, after mixing, the vials are counted for 1 minute in a liquid scintillation spectrometer. The amount of specific binding is calculated as the difference in cpm between the total bound [^3 H]-PAF and non-specifically bound [^3 H]-PAF. The percent inhibition of specific binding is determined by dividing the cpm specifically bound in the presence of the test compound by the cpm specifically bound in total, multiplying by 100 and then subtracting from 100. […]

[2] = test system: PAF-mediated extravasation in guinea pigs; experiment: PAF-induced Extravasation test (Test C), hemoconcentration (hematocrit); type: in vivo, guinea pig; conditions: Cavia porcellus, ia, PAF 100 ng/kg iv, inhibition of percent increase in hematocrit
Procedure: Still further, the compounds of formula I are useful as inhibitors of PAF-mediated extravasation (the extrusion of plasma from the lumen of the blood vessels into the vessel wall and surrounding tissues) measured as a function of hemoconcentration according to the PAF-induced Extravasation test (Test C) as follows.
Male guinea pigs, weighing between 300 and 400 gm, are anesthetized, after which time a femoral catheter is inserted. The test compound is administered intraarterially at one to five minutes prior to the introduction of PAF. The PAF (C18 -Sandoz, Hanover) is dissolved in Tris-Tyrode's bovine serum albumin buffer and administered intravenously (jugular) at 100 ng/kg.
To determine the hematocrit value, which is employed to index hemoconcentration and is defined as the percent of packed red blood cells in a sample of blood which is centrifuged to separate plasma from the cellular components, blood samples are collected in 50 μl heparinized hematocrit tubes. […] The tubes are then centrifuged and the percent of packed red blood cells (hematocrit) is measured (PAF induces a maximal increase in hematocrit at 5 to 7 minutes subsequent to the injection of PAF). The percent increase in hematocrit over the value prior to the injection of PAF is calculated. […]

[3] = test system: human platelet aggregation (PAF-induced); experiment: Platelet Aggregation Inhibition Assay test (PAIA test): inhibition of PAF-induced human platelet aggregation in vitro; type: cell-based; conditions: PAF-induced human platelet aggregation in PRP, 37° C., C-16 PAF 0.1 μM or 0.01 μM
Procedure: All of the compounds of formula I are useful as platelet activating factor inhibitors as indicated by their ability to inhibit platelet activating factor (PAF)-induced human platelet aggregation in vitro according to the Platelet Aggregation Inhibition Assay test (PAIA test) as follows:
Human subjects are kept aspirin free for one week and fasted overnight. Platelet rich plasma (PRP) is prepared by centrifugation (200×g.) of freshly drawn blood, anti-coagulated with 0.38% sodium citrate (final concentration). Platelet count is adjusted to 250,000 per μl using platelet poor plasma (PPP) obtained by a second centrifugation (700×g.) of the blood sample. An aliquot (0.38 ml.) of the PRP is dispensed into cuvettes and maintained at room temperature (22° C.) until used (but for not more than two hours). The PRP-containing cuvettes are incubated at 37° C. and stirred at 900 rpm within a Payton Aggregometer which is activated to follow the light deflection pattern prior to the addition of the test compound. […] Between one and two minutes after the addition of the test compound, the aggregation inducing agent (C-16 PAF-Sandoz-Hanover), dissolved in a buffer consisting of 0.01M Tris-Tyrodes buffer with 0.25% bovine serum albumin (pH 7.4), is added to the PRP-containing cuvettes in an amount predetermined to give a consistent aggregation response (either 0.1 μM or 0.01 μM). All aggregations are allowed to proceed for 6 minutes from the addition of the inducing agent. The aggregation response is quantitated by determining the area under the curve (AUC). The AUC calculated for the inducing agent alone is considered to be one hundred percent. The potential percent inhibition of the aggregation response is determined by dividing the AUC generated in the presence of the compound by the AUC of the inducing agent alone, multiplying by 100 and then subtracting from 100.

[4] = test system: PAF-induced hypotension in Wistar rats; experiment: Inhibition of PAF-induced hypotension (Test D); type: in vivo, rat (male Wistar); conditions: male Wistar rats
Procedure: Yet still further, the compounds of formula I are useful as inhibitors of PAF-induced hypotension as measured by their ability to inhibit the lowering of blood pressure levels induced by PAF according to the following test (Test D):
Male Wistar rats, weighing approximately 300 gm, are anesthetized and their carotid arteries cannulated to enable their diastolic and systolic arterial blood pressure measurements to be recorded. PAF is then administered intravenously at either 100 or 500 ng/kg, and the blood pressure drop (within 10 sec.) and recovery time required to reach the pre-injection blood pressure level are measured. At 100 ng/kg, a 30% decrease in blood pressure and a 3 to 4 minute recovery time are observed, whereas at 500 ng/kg, a 52% decrease in blood pressure and a 10 minute recovery time are observed. In order to measure the effectiveness of a compound for both the inhibition of blood pressure decreases and shortening of the recovery time, the test compound is administered intravenously over a range of between 5 and 7 dosage levels (1 or 2 test animals per dose) and between 1 and 5 minutes prior to the introduction of PAF to generate an ED50.

[5] = test system: PAF-mediated bronchoconstriction in guinea pigs; experiment: PAF-induced Pulmonary Inflation Pressure (PIP) Increase test (Test B); type: in vivo, guinea pig; conditions: PAF 100 ng/kg iv, slowly decreases to baseline
Procedure: Furthermore, in view of their usefulness as PAF receptor antagonists, the compounds of formula I have been found useful as inhibitors of PAF-mediated bronchoconstriction, which property was evaluated by the PAF-induced Pulmonary Inflation Pressure (PIP) Increase test (Test B) as follows:
Male guinea pigs, weighing between 300 and 400 gm, are anesthetized, after which time trachea tube, carotid and jugular catheters are inserted. The test animal is then force ventilated employing a small animal Harvard respirator and the resistance to lung inflation (PIP) is measured utilizing a pressure transducer and recorder. The test compound is administered either orally at 30 minutes prior to or intravenously (jugular) at 5 minutes prior to the introduction of PAF. The PAF (C18 -Sandoz, Hanover) is dissolved in Tris-Tyrode's bovine serum albumin buffer and administered intravenously (jugular) at 100 ng/kg. Any blood pressure measurements taken are recorded from a transducer attached to the carotid catheter. […] A reading at 15 minutes after the administration of PAF is termed the endpoint PIP. The effect of the test compound on the PIP response is determined by the difference between the percent increase in maximal PIP over baseline for the test animal to which has been administered PAF and the test compound compared to the test animal to which only PAF has been administered.

T1 sequence (P25105 whole entry): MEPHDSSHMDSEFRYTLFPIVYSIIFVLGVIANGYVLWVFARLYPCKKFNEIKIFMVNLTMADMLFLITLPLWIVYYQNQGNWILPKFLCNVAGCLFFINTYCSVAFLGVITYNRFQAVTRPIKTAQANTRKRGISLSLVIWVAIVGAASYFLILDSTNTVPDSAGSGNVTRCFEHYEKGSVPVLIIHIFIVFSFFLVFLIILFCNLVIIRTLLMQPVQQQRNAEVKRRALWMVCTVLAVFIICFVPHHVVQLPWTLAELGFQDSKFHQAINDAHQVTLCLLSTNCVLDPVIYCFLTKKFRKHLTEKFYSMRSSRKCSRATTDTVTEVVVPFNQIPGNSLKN

`CCCCCCCCCCCCCCCCCCOCCC1(COP(=O)([O-])OCC[n+]2ccsc2)CCC(=O)O1` (stereo not shown) [Example 1, 3-[2-[(2-Octadecyloxy)ethyl-5-oxo-tetrahydrofuran-2-yl]methoxyhydroxyphosphinyloxy-ethane]thiazolium hydroxide-inner salt-4-oxide] showed an IC50 [1] of 1.8 µM, an ED50 [2] of 0.25 mg/kg and an IC50 [3] of 10.5 µM.

With `CCCCCCCCCCCCCCCCCCOCC1(COP(=O)([O-])OCC[n+]2ccsc2)CCCO1` (stereo not shown) [Example 2, 3-[2-[(2-Octadecyloxymethyltetrahydrofuran-2-yl-methoxy)-hydroxyphosphinyloxy]-ethane]-thiazolium hydroxide inner salt-4-oxide] the IC50 [1] was 3.3 µM and the IC50 [3] was 81.5 µM.

With `CCCCCCCCCCCCCCCCCCNC(=O)OCC1(COP(=O)([O-])OCC[n+]2ccsc2)CCCO1` (stereo not shown) [Example 3, 3-[2-[(2-Octadecylaminocarbonyloxymethyltetrahydrofuran-2-yl-methoxy)-hydroxyphosphinyloxy]-ethane]-thiazolium hydroxide inner salt-4-oxide] the ED50 ([4]; Rattus norvegicus, iv, PAF-induced hypotension) was 1.5 mg/kg, the IC50 [1] was 0.47 µM and the ED50 [2] was 0.3 mg/kg. For the same compound, the IC50 [3] was 3.5 µM.

With “1-O-alkyl-2-acetyl-sn-glyceryl-3-phosphorylcholine [PAF]” the “decrease in blood pressure” value ([4]; PAF 100 ng/kg iv) was 30%, the “decrease in blood pressure” value ([4]; PAF 500 ng/kg iv) was 52% and the “recovery time to pre-injection blood pressure level” value ([4]; PAF 500 ng/kg iv) was 10 min. The “duration of long term PIP response” value [5] was “at least 30 minutes”.
